From paper PMC10254170, “Diastereoselective Synthesis of the Borylated D-Galactose Monosaccharide 3-Boronic-3-Deoxy-D-Galactose and Biological Evaluation in Glycosidase Inhibition and in Cancer for Boron Neutron Capture Therapy (BNCT)” (Molecules, 2023)
Where two headings read alike, the source gives them in different places.

Assays:
MCF-7 (breast carcinoma) = experiment: Cancer screening (MTT growth inhibition), MCF-7; assay type: cell-based; conditions: Homo sapiens, 72 h
Method: (§1) All test agents were prepared as stock solutions (20 mM) in dimethyl sulfoxide (DMSO) and stored at −20 °C. Cell lines used in the study included: HT29 (colorectal carcinoma), U87 and SJ-G2 (glioblastoma), MCF-7 (breast carcinoma), A2780 (ovarian carcinoma), H460 (lung carcinoma), A431 (skin carcinoma), Du145 (prostate carcinoma), BE2-C (neuroblastoma), MiaPaCa-2 (pancreatic carcinoma), SMA560 (spontaneous murine astrocytoma), and ADDP (Cis Res Ovarian), together with one non-tumor-derived normal breast cell line (MCF10A). All cell lines were incubated in a humidified atmosphere with 5 % CO2 at 37 °C. The cancer cell lines were maintained in Dulbecco’s modified Eagle’s medium (DMEM; Sigma, Australia) supplemented with fetal bovine serum (10%), sodium pyruvate (10 mM), penicillin (100 IUmL^−1), streptomycin (100 µg mL^−1), and L-glutamine (2 mM).
(§2) Growth inhibition was determined by plating cells in duplicate in medium (100 µL) at a density of 2500–4000 cells per well in 96-well plates. On day 0 (24 h after plating), when the cells are in logarithmic growth, medium (100 µL) with or without the test agent was added to each well. After 72 h of drug exposure, growth inhibitory effects were evaluated using the (3-(4,5-dimethyltiazol-2-yl)-2,5-diphenyltetrazolium bromide) (MTT) assay and absorbance read at 540 nm. The percentage growth inhibition was calculated at a fixed concentration of 25 µM, based on the difference between the optical density values on day 0 and those at the end of drug exposure. Each data point is the mean ± the standard error of the mean (SEM) calculated from three replicates, which were performed on separate occasions and in separate cell line passages.

[1] = tested on: Du145 (prostate carcinoma); experiment: Cancer screening (MTT growth inhibition), Du145; assay type: cell-based; conditions: Homo sapiens, 72 h
Method: as §1, §2

[2] = tested on: rat intestinal maltase α-glucosidase; experiment: Glycosidase inhibition, rat intestinal maltase; assay type: biochemical; conditions: at 1000 μM
From the text: (§3) Glycosidase modulation studies need to explore selectivity as well as potency. Our drugs and controls are therefore screened against a panel of glycosidases in methanol (Table 1) to identify the glycosidase-related disease area(s), selectivity profile, and potency of biological action for each drug. The presence of organic boron covalently bonded to the drug structure also grants a reduced toxicity profile. Following the glycosidase inhibition range recommendations, an IC50 value >250 μm denotes weak inhibition, 100–249 μm denotes moderate inhibition, 10–99 μm good inhibition, 0.1–9 μm potent inhibition, and <0.1 μm very potent inhibition. […] Our boronated D-galactose 7 represents a novel lead in glycosidase inhibition.
(§4) The glycosidases screened are the following: rice α-glucosidase, yeast α-glucosidase, Bacillus α-glucosidase, rat intestinal maltase α-glucosidase, almond β-glucosidase, bovine liver β-glucosidase, coffee beans α-galactosidase, bovine liver β-galactosidase, Jack bean α-mannosidase, snail β-mannosidase, Penicillium decumbens α-L-rhamnosidase, bovine kidney α-L-fucosidase, Eschierichia coli β-glucuronidase, bovine liver β-glucuronidase, porcine kidney trehalase, Aspergillus niger amyloglucosidase, and bovine kidney N-acetyl-β-glucosaminidase. The disease areas for each glycosidase are summarized in [1].
(§5) Brush border membranes were prepared from the rat small intestine according to the method of Kessler et al. and were assayed at pH 6.8 for rat intestinal maltase using maltose. For rat intestinal maltase, porcine kidney trehalase, and A. niger amyloglucosidase activities, the reaction mixture contained 25 mM maltose and the appropriate amount of enzyme, and the incubations were performed for 10–30 min at 37 °C. The reaction was stopped by heating at 100 °C for 3 min. After centrifugation (600 g; 10 min), the resulting reaction mixture was added to the Glucose CII-test Wako (Wako Pure Chemical Ind., Osaka, Japan). The absorbance at 505 nm was measured to determine the amount of the released D-glucose. Other glycosidase activities were determined using an appropriate para-nitrophenyl glycoside as substrate at the optimum pH of each enzyme. The reaction mixture contained 2 mM of the substrate and the appropriate amount of enzyme. The reaction was stopped by the addition of 400 mM Na2CO3. The released para-nitrophenol was measured spectrometrically at 400 nm. All reactions run in methanol.

E. coli β-glucuronidase = biological target: T1, E. coli β-glucuronidase (Escherichia coli, UniProt P05804); experiment: Glycosidase inhibition, E. coli β-glucuronidase; assay type: biochemical; conditions: at 1000 μM
T1 construct: purchased Sigma-Aldrich Co
From the text: as §3, §4
(§6) The enzymes α-glucosidase (from yeast), β-glucosidases (from almond and bovine liver), α-galactosidase (from coffee beans), β-galactosidase (from bovine liver), α-mannosidase (from Jack bean), β-mannosidase (from snail), α-L-rhamnosidase (from Penicillium decumbens), α-L-fucosidase (from bovine kidney), trehalase (from porcine kidney), β-glucuronidases (from E. coli and bovine liver), amyloglucosidase (from A. niger), para-nitrophenyl glycosides, and various disaccharides were purchased from Sigma-Aldrich Co.
as §5

yeast α-glucosidase = experiment: Glycosidase inhibition, yeast α-glucosidase; assay type: biochemical; conditions: at 1000 μM
From the text: as §3, §4, §6, §5

[3] = tested on: MCF10A (non-tumor-derived normal breast cell line); experiment: Cancer screening (MTT growth inhibition), MCF10A; assay type: cell-based; conditions: Homo sapiens, MCF-10A, 72 h
Method: as §1
The non-cancer MCF10A cell line was maintained in DMEM:F12 (1:1) cell culture media, 5% heat inactivated horse serum, and supplemented with penicillin (50 IUmL^−1), streptomycin (50 µg mL^−1), HEPES (20 mM), L-glutamine (2 mM), epidermal growth factor (20 ng mL^−1), hydrocortisone (500 ng mL^−1), cholera toxin (100 ng mL^−1), and insulin ([…]).
as §2

[4] = biological target: T2, coffee beans α-galactosidase (Coffea arabica, UniProt Q42656); experiment: Glycosidase inhibition, coffee beans α-galactosidase; assay type: biochemical; conditions: at 1000 μM
T2 construct: purchased Sigma-Aldrich Co
From the text: as §3, §4, §6, §5

H460 (lung carcinoma) = experiment: Cancer screening (MTT growth inhibition), H460; assay type: cell-based; conditions: Homo sapiens, 72 h
Method: as §1, §2

SJ-G2 (glioblastoma) = experiment: Cancer screening (MTT growth inhibition), SJ-G2; assay type: cell-based; conditions: 72 h
Method: as §1, §2

[5] = tested on: Penicillium decumbens α-L-rhamnosidase; experiment: Glycosidase inhibition, Penicillium decumbens α-L-rhamnosidase; assay type: biochemical; conditions: at 1000 μM
From the text: as §3, §4, §6, §5

rice α-glucosidase = rice α-glucosidase (Oryza sativa subsp. japonica, UniProt Q653V7); experiment: Glycosidase inhibition, rice α-glucosidase; assay type: biochemical; conditions: at 1000 μM
From the text: as §3, §4, §5

[6] = tested on: HT29 (colorectal carcinoma); experiment: Cancer screening (MTT growth inhibition), HT29; assay type: cell-based; conditions: Homo sapiens, 72 h
Method: as §1, §2

BE2-C (neuroblastoma) = experiment: Cancer screening (MTT growth inhibition), BE2-C; assay type: cell-based; conditions: Homo sapiens, BE(2)-C, 72 h
Method: as §1, §2

[7] = tested on: bovine liver β-galactosidase; experiment: Glycosidase inhibition, bovine liver β-galactosidase; assay type: biochemical; conditions: at 1000 μM
From the text: as §3, §4, §6, §5

[8] = tested on: MiaPaCa-2 (pancreatic carcinoma); experiment: Cancer screening (MTT growth inhibition), MIA-Pa-Ca2; assay type: cell-based; conditions: Homo sapiens, 72 h
Method: as §1, §2

snail β-mannosidase = experiment: Glycosidase inhibition, snail β-mannosidase; assay type: biochemical; conditions: at 1000 μM
From the text: as §3, §4, §6, §5

[9] = in methanol, read-out: inhibition %
[10] = 25 µM of drug, n = 3, mean ± SEM, read-out: Percentage (%) cell growth inhibition
[11] = dose response, read-out: GI50 = Concentration that inhibits cell growth by 50%

T1 sequence (P05804 whole entry): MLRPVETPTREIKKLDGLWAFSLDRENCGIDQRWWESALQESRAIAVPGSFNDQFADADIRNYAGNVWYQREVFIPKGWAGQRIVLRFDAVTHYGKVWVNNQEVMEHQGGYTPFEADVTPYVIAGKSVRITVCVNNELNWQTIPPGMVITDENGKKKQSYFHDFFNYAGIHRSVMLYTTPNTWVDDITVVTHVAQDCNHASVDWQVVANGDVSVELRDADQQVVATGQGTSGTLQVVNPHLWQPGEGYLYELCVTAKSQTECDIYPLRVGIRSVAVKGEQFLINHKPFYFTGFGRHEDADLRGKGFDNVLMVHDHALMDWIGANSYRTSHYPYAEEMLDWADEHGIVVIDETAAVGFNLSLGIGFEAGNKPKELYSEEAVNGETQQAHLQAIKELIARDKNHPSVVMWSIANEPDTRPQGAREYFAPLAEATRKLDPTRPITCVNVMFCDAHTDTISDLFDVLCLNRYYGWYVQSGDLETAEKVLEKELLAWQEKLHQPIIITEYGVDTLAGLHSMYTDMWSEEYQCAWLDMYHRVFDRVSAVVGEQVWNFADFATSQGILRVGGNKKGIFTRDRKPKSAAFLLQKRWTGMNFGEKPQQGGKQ
T2 sequence (Q42656 16-378): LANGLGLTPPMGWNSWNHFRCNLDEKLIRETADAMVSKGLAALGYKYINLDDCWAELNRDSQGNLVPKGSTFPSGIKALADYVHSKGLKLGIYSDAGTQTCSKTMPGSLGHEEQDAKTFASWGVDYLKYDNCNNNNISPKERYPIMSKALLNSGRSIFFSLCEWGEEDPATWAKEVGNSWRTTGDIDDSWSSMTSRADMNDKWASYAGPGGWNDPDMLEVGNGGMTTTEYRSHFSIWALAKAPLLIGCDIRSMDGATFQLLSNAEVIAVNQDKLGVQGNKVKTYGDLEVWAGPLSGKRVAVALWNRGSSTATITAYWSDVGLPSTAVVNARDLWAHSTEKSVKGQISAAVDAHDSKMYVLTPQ
Chain of rice α-glucosidase (Q653V7 34-885): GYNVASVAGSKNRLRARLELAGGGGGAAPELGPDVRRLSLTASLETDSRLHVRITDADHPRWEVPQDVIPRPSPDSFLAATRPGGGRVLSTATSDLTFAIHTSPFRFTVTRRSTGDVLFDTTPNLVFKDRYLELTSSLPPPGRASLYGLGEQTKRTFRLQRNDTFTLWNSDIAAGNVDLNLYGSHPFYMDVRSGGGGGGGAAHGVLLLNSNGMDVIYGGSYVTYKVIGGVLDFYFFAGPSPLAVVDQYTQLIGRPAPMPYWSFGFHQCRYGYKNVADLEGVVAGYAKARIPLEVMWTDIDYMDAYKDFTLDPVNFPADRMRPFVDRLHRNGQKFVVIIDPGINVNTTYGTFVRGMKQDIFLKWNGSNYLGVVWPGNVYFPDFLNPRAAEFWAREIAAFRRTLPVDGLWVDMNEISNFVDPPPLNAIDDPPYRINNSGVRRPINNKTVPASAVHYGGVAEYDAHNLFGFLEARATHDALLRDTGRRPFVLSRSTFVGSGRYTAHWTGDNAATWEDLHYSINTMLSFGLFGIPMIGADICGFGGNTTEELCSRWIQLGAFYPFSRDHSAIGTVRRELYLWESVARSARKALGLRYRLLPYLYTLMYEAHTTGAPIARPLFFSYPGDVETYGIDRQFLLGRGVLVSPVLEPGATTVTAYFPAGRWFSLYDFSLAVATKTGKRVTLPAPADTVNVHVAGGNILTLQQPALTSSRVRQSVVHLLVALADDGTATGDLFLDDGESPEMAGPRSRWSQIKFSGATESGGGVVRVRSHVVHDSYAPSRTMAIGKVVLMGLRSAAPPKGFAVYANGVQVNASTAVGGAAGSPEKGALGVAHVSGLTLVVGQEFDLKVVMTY

Compound `OCC1OC(O)C(O)C(B(O)O)C1O` [Compound 7, 3-Boronic-3-Deoxy-D-galactose] has an inhibition at 25 µM (MCF-7 (breast carcinoma); MCF7, 25 µM of drug, n = 3, mean ± SEM, read-out: Percentage (%) cell growth inhibition) of 2 ± 2%, a GI50 (MCF-7 (breast carcinoma); MCF7, dose response, read-out: GI50 = Concentration that inhibits cell growth by 50%) greater than 50 µM and an inhibition at 25 µM ([1]; DU-145, 25 µM of drug, n = 3, mean ± SEM, read-out: Percentage (%) cell growth inhibition) of 7 ± 4%. The GI50 ([1]; DU-145, dose response, read-out: GI50 = Concentration that inhibits cell growth by 50%) was greater than 50 µM, the “NI: No inhibition” value [2] was “NI (No inhibition (less than 50% inhibition at 1000 μM))” and the inhibition % ([2]; in methanol) was 18.3%. For the same compound, the inhibition at 1000 µM (E. coli β-glucuronidase; [9]) was 3.7%, the inhibition at 1000 µM (E. coli β-glucuronidase; read-out: NI: No inhibition) was less than 50% and the “NI: No inhibition” value (yeast α-glucosidase) was “NI (No inhibition (less than 50% inhibition at 1000 μM))”. It also gave an inhibition % (yeast α-glucosidase; in methanol) of 12.1%, an inhibition at 25 µM [3, 10] of 7 ± 3% and a GI50 [3, 11] greater than 50 µM. The inhibition at 1000 µM [4, 9] was 0%, the inhibition at 1000 µM ([4]; read-out: NI: No inhibition) was less than 50% and the inhibition at 25 µM (H460 (lung carcinoma); NCI-H460, 25 µM of drug, n = 3, mean ± SEM, read-out: Percentage (%) cell growth inhibition) was 4 ± 1%. It also gave a GI50 (H460 (lung carcinoma); NCI-H460, dose response, read-out: GI50 = Concentration that inhibits cell growth by 50%) greater than 50 µM, an inhibition at 25 µM (SJ-G2 (glioblastoma); SJ-G2, 25 µM of drug, n = 3, mean ± SEM, read-out: Percentage (%) cell growth inhibition) of 7 ± 4% and a GI50 (SJ-G2 (glioblastoma); SJ-G2, dose response, read-out: GI50 = Concentration that inhibits cell growth by 50%) greater than 50 µM. For the same compound, the “NI: No inhibition” value [5] was “NI (No inhibition (less than 50% inhibition at 1000 μM))”, the inhibition % ([5]; in methanol) was 0% and the inhibition at 1000 µM (rice α-glucosidase; [9]) was 33.8%. For the same compound, the inhibition at 1000 µM (rice α-glucosidase; read-out: NI: No inhibition) was less than 50%, the inhibition at 25 µM ([6]; HT-29, 25 µM of drug, n = 3, mean ± SEM, read-out: Percentage (%) cell growth inhibition) was -2 ± 2% and the GI50 ([6]; HT-29, dose response, read-out: GI50 = Concentration that inhibits cell growth by 50%) was greater than 50 µM. For the same compound, the inhibition at 25 µM (BE2-C (neuroblastoma); [10]) was 1 ± 2%, the GI50 (BE2-C (neuroblastoma); [11]) was greater than 50 µM and the “NI: No inhibition” value [7] was “NI (No inhibition (less than 50% inhibition at 1000 μM))”. The inhibition % ([7]; in methanol) was 40.7%, the inhibition at 25 µM ([8]; MIA PaCa-2, 25 µM of drug, n = 3, mean ± SEM, read-out: Percentage (%) cell growth inhibition) was 1 ± 2% and the GI50 ([8]; MIA PaCa-2, dose response, read-out: GI50 = Concentration that inhibits cell growth by 50%) was greater than 50 µM. The “NI: No inhibition” value (snail β-mannosidase) was “NI (No inhibition (less than 50% inhibition at 1000 μM))” and the inhibition % (snail β-mannosidase; in methanol) was 0%.
